Key:
[1] = test system: Trypanosoma cruzi; experiment: Antiparasitic activity against Trypanosoma cruzi Tulahuen C2C4 amastigotes; assay type: functional, organism-based
[2] = test system: L6; experiment: Cytotoxicity against rat L6 cells; assay type: cell-based
[3] = Selectivity index, ratio of EC50 for Trypanosoma cruzi Tulahuen C2C4 amastigotes to the EC50 for rat L6 cells
[4] = target: Trypanothione reductase (Trypanosoma cruzi, UniProt P28593); experiment: Inhibition of Trypanosoma cruzi X10/1 recombinant trypanothione reductase assessed as increase in absorbance at 410 nm due to the formation of TNB
Chain of Trypanothione reductase (P28593 whole entry): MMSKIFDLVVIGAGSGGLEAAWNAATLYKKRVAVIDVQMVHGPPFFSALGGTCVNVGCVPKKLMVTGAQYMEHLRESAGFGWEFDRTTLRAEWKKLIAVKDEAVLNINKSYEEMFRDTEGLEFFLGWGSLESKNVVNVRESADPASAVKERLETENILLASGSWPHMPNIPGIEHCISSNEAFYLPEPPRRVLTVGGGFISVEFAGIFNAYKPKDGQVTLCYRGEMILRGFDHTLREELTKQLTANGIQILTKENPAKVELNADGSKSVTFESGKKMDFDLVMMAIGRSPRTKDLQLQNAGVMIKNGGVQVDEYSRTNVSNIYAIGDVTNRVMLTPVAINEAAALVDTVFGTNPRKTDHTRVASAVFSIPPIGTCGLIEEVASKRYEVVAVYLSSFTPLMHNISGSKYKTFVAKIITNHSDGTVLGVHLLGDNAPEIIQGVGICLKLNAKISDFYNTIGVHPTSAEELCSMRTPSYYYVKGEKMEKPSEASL

[5] = test system: Plasmodium falciparum; experiment: Antiparasitic activity against Plasmodium falciparum 3D7 at erythrocytic stage; assay type: functional, organism-based
[6] = test system: Leishmania donovani; experiment: Antiparasitic activity against Leishmania donovani MHOM/ET/67/L82 amastigotes; assay type: functional, organism-based
[7] = test system: Trypanosoma brucei rhodesiense; experiment: Antiparasitic activity against Trypanosoma brucei rhodesiense STIB900 bloodstream form; assay type: functional, organism-based

| SMILES | EC50 [1] | EC50 [2] | other results |
| --- | --- | --- | --- |
| CN1C2CCC1CC(=NOC(c1ccccc1)c1ccccc1Cl)C2 (stereo not drawn) | 6800 nM | 15 µM | – |
| CN1C2CCC1CC(=NOC(Cc1ccc(Cl)cc1)c1ccccc1)C2 (stereo not drawn) | 1900 nM | 49 µM | – |
| CN1C2CCC1CC(=NOCc1ccccc1)C2 | > 10000 nM | > 100 µM | – |
| CC(C)=NOC(c1ccccc1)c1ccc(Cl)cc1 (stereo not drawn) | > 10000 nM | > 100 µM | – |
| CN1C2CCC1CC(=NOC(CCc1ccc(Cl)cc1)c1ccccc1)C2 (stereo not drawn) | 800 nM | 16 µM | – |
| CN1C2CCC1CC(=NOC1c3ccccc3-c3ccccc31)C2 | > 10000 nM | 68 µM | – |
| CN1C2CCC1CC(=NOC(c1ccccc1)c1cccc(Cl)c1)C2 (stereo not drawn) | 2100 nM | 19 µM | – |
| COc1ccccc1C(ON=C1CC2CCC(C1)N2C)c1ccccc1 (stereo not drawn) | > 10000 nM | > 100 µM | – |
| OCCN1C2CCC1CC(=NOC(c1ccccc1)c1ccc(Cl)cc1)C2 (stereo not drawn) | 7800 nM | 47 µM | – |
| CN1C2CCC1CC(=NOC(CCc1ccccc1)c1ccc(Cl)cc1)C2 (stereo not drawn) | 6500 nM | 20 µM | – |
| CN1CCC(=NOC(c2ccccc2)c2ccc(Cl)cc2)CC1 (stereo not drawn) | 3700 nM | 50 µM | – |
| CN1C2CCC1CC(=NOC(c1ccc(Cl)cc1)c1ccccn1)C2 (stereo not drawn) | 2900 nM | > 100 µM | – |
| CN1C2CCC1CC(=NOC(c1ccc(Cl)cc1)c1cncs1)C2 (stereo not drawn) | 6000 nM | > 100 µM | – |
| CN1C2CCC1CC(=NOC(Cc1ccccc1)c1ccc(Cl)cc1)C2 (stereo not drawn) | 2100 nM | 40 µM | – |
| CN1C2CCC1CC(=NOC(c1ccccc1)c1ccccc1)C2 | 1300 nM | > 100 µM | – |
| COc1ccc(C(ON=C2CC3CCC(C2)N3C)c2ccccc2)cc1 (stereo not drawn) | 300 nM | > 100 µM | – |
| COc1cccc(C(ON=C2CC3CCC(C2)N3C)c2ccccc2)c1 (stereo not drawn) | 2000 nM | 48 µM | – |
| CN1C2CCC1CC(=NOC(c1ccc(Cl)cc1)c1cscn1)C2 (stereo not drawn) | 800 nM | 71 µM | – |
| CN(C)CCN1C2CCC1CC(=NOC(c1ccccc1)c1ccc(Cl)cc1)C2 (stereo not drawn) | 6900 nM | 15 µM | – |
| CN1C2CCC1CC(=NOC(c1ccccc1)c1ccc(C#N)cc1)C2 (stereo not drawn) | 400 nM | 53 µM | – |

| SMILES | EC50 [1] | EC50 [2] | other results |
| --- | --- | --- | --- |
| CN1C2CCC1CC(=NOC(c1ccccc1)c1ccc(F)cc1)C2 (stereo not drawn) | 800 nM | 50 µM | – |
| CN1C2CCC1CC(=NOC(c1ccccc1)c1ccc(Br)cc1)C2 (stereo not drawn) | 40 nM | 40 µM | – |
| CN1C2CCC1CC(=NOC(c1ccccc1)c1ccc(I)cc1)C2 (stereo not drawn) | 40 nM | 39 µM | – |
| Cc1ccc(C(ON=C2CC3CCC(C2)N3C)c2ccccc2)cc1 (stereo not drawn) | 300 nM | 51 µM | – |
| CN1C2CCC1CC(=NOC(c1ccccc1)c1ccc(C(F)(F)F)cc1)C2 (stereo not drawn) | 30 nM | 35 µM | Ratio EC50 [3]: >1000 |
| CN1C2CCC1CC(=NOC(c1ccc(Cl)cc1)c1ccc(Cl)cc1)C2 | 6000 nM | 16 µM | – |
| CN1C2CCC1CC(=NOC(CCCc1ccccc1)c1ccc(Cl)cc1)C2 (stereo not drawn) | 4300 nM | 17 µM | – |
| Clc1ccc(C(ON=C2CCCCC2)c2ccccc2)cc1 (stereo not drawn) | > 10000 nM | > 100 µM | – |
| CN1C2CCC1CC(=NOC(c1ccc(Cl)cc1)c1cccnc1)C2 (stereo not drawn) | 500 nM | > 100 µM | – |
| CN1C2CCC1CC(=NOC(c1ccncc1)c1ccc(Cl)cc1)C2 (stereo not drawn) | 6200 nM | > 100 µM | – |
| CN1C2CCC1CC(=NOC(c1ccc(Cl)cc1)c1nccs1)C2 (stereo not drawn) | 2300 nM | > 100 µM | – |
| CN1C2CCC1CC(=NOCc1ccc(Cl)cc1)C2 | > 10000 nM | > 100 µM | – |
| Clc1ccc(C(ON=C2CC3CCC(C2)N3)c2ccccc2)cc1 (stereo not drawn) | 2000 nM | 9.8 µM | – |
| CN1C2CCC1CC(=NOC(c1ccccc1)c1ccc(Cl)cc1)C2 (stereo not drawn) | 110 nM | 36 µM | EC50 [4]: 35 µM; EC50 [5]: 7.5 µM; EC50 [6]: > 30000 nM; EC50 [7]: 3000 nM |
| O=C(Cn1ccnc1[N+](=O)[O-])NCc1ccccc1 [BENZNIDAZOLE] | 1800 nM | – | – |
| CCN(CC)CCCC(C)Nc1ccnc2cc(Cl)ccc12 (stereo not drawn) [CHLOROQUINE] | – | – | EC50 [5]: 0.0094 µM |
| Nc1nc(N)nc(Nc2ccc([As]3SCC(CO)S3)cc2)n1 (stereo not drawn) [MELARSOPROL] | – | – | EC50 [7]: 17 nM |
| CCCCCCCCCCCCCCCCOP(=O)([O-])OCC[N+](C)(C)C [MILTEFOSINE] | – | – | EC50 [6]: 270 nM |
| COc1cc([C@@H]2c3cc4c(cc3[C@H](O)[C@H]3COC(=O)[C@H]23)OCO4)cc(OC)c1OC [PODOFILOX] | – | 0.014 µM | – |
